Assay results as given in patent US20230407296A1, “Method to Regulate ALOX12-AS1 IncRNA-Mediated Alteration of ALOX12 Protein and to Screen for Novel Drugs to Alter ALOX12 Protein Level” (priority 2021, published 2023).
d = 2'-deoxy (DNA); m = 2'-O-methyl

Experiments:
ALOX12 mRNA [1] = experiment: ALOX12 mRNA level in HEK293 cells (multiplex RT-PCR / qPCR); assay type: cell-based, human
Text: HEK293 cells were transiently transfected with plasmids expressing ALOX12-AS1-201/202 to study lncRNA-mediated suppression of ALOX12. […] The nucleo-cytoplasmic abundance of ALOX12-AS1 lncRNA may be tightly regulated in HEK293 cells. Therefore, increased transcription of the transfected plasmids in the nucleus may not ensure higher levels of the lncRNAs in the cytoplasm, which may be a requisite for suppression of ALOX12. To overcome this limitation, HEK293 cells were transfected with in vitro transcribed ALOX12-AS1-201/202 mRNAs to ensure high cytoplasmic abundance of the antisense lncRNAs. […]
(§1) Total RNA from different cell lines was extracted with Trizol reagent (Catalog number: 15596026; ThermoFisher Scientific, Canada) as per the manufacturer's recommended protocol. […] Absolute quantification of ALOX12-AS1 lncRNA isoforms was performed in a Mastercycler®ep realplex real-time PCR system (Eppendorf, Hamburg, Germany) using SYBR green dye (Catalog number: S7563; ThermoFisher Scientific). […] Real-time PCR data quality control calculations were determined by the SAS program as described previously and the calculated PCR efficiency was between 95%-99%. Quantitative RT-PCR was conducted for different cell-line derived RNAs, and the specificity of each amplified product was confirmed by melting curve analysis. Results were expressed as copy number of specific isoforms per 100 ng of total RNA.

[2] = tested on: ALOX12 protein level in HEK293 cells; experiment: ALOX12 protein level in HEK293 cells (immunoblot); assay type: cell-based, human
Description: Relative quantification of proteins was performed as described previously [35, 106]. The cell lysates were prepared in 1×RIPA lysis and extraction buffer (catalogue number: 89900, ThermoFisher Scientific) supplemented with 1× Halt protease and phosphatase inhibitor cocktail (catalogue number: 78441, ThermoFisher Scientific). The protein lysates were denatured in Laemmli buffer containing 2% SDS, 10% glycerol, 0.002% bromophenol blue, 0.75 M Tris-HCl pH 6.8, and 100 mM DTT. The immunoblots were imaged using a ChemiDoc XRS+ system (Bio-Rad) and band intensities were quantified using ImageJ (version 1.48) Software [107]. Due to the possibility of inconsistency in the relative expression of housekeeping genes, we normalized all proteins of interest based on the intensity of the Oriole-stained protein profile [92].

ALOX12-AS1-201 = ALOX12-AS1-201 level in ASO-transfected HEK293 cells (multiplex RT-PCR / qPCR); assay type: cell-based, human
Description: (§2) Small interfering RNA (siRNA)-mediated knockdown of ALOX12-AS1 in HEK293 cells was ineffective possibly because of the nuclear localization of the lncRNA. As an alternative approach, multiple isoform-specific oligonucleotides (ASOs) complementary to different regions of ALOX12-AS1-201/202 were designed (FIG. 7A-C).
(§3) Three ALOX12-AS1-202-specific ASOs were designed and two of them (ASO-2 and -3) reduced ALOX12-AS1-202 mRNA levels within 24 hours of transfection (FIGS. 7L&O, red rectangle).
as §1

ALOX12-AS1-202 = ALOX12-AS1-202 level in ASO-transfected HEK293 cells (multiplex RT-PCR / qPCR); assay type: cell-based, human; details: HEK293, ALOX12-AS1-201-targeted ASO, 24 hours after transfection, quantitative PCR
Description: as §2, §3, §1

ALOX12 = target: T1, ALOX12 (Homo sapiens, UniProt P18054); details: cited from earlier work
T1 sequence (P18054 1-663): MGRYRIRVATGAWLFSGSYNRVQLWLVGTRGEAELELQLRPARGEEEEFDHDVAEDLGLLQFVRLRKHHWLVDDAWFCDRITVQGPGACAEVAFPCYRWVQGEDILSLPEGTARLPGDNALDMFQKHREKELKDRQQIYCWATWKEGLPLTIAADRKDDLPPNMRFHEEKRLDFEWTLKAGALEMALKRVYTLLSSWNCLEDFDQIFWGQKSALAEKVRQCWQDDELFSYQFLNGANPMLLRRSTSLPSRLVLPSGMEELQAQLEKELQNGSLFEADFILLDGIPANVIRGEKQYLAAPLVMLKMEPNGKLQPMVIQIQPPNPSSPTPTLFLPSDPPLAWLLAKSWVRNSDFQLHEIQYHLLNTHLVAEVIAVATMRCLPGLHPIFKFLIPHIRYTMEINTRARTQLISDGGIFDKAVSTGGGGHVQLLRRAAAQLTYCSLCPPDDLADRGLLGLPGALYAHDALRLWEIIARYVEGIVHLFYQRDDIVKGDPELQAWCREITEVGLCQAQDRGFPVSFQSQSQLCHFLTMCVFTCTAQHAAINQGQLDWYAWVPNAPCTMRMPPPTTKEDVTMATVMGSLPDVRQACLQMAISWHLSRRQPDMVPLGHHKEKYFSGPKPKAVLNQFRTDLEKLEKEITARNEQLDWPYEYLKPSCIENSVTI

ALOX12 mRNA [3] = details: HepG2 cells; cited from earlier work

Molecule: mA*mG*mA*mA*mC*T*G*T*C*A*A*T*A*A*T*mC*mU*mU*mA*mC (antisense AGAACTGTCAATAATCUUAC; sugars from the 5' end m5 d10 m5, all phosphorothioate, methylation of C not given here) [ASO-4, ALOX12-AS1-201-targeted gapmer ASO]
- ALOX12 mRNA level (ALOX12 mRNA [1]; HEK293, ALOX12-AS1-201-targeted ASO, 24 hours after transfection, quantitative PCR): unchanged
- ALOX12 mRNA levels (ALOX12 mRNA [1]; HEK293, ALOX12-AS1-201-targeted ASOs, multiplex RT-PCR): relatively unaltered
- ALOX12 protein level ([2]; HEK293, ALOX12-AS1-201-targeted ASO, 24 hours after transfection, quantified immunoblot): significantly reduced
- ALOX12 protein level ([2]; HEK293, ALOX12-AS1-201-targeted ASOs, immunoblot): dramatically reduced
- ALOX12-AS1-201 isoform level (ALOX12-AS1-201; HEK293, 24 hours after transfection, quantitative PCR): significant reduction
- knockdown of ALOX12-AS1-201 (ALOX12-AS1-201; HEK293, ALOX12-AS1-201-targeted ASOs, within 24 hours of transfection, multiplex RT-PCR): ~27%
- ALOX12-AS1-202 isoform level (ALOX12-AS1-202): significant reduction

Molecule: O=c1cc(-c2ccccc2)oc2cc(O)c(O)c(O)c12 [baicalein, 5,6,7-Trihydroxyflavone]
- inhibition of ALOX12 (ALOX12): can be inhibited
- selectivity for ALOX12 over other ALOXs (ALOX12; inhibits other ALOXs): not selective for ALOX12

Molecule: CCCCCCCC/C=C/CCCCCCCC(=O)O [elaidic acid]
- reduction of ALOX12 mRNA expression (ALOX12 mRNA [3]): 1.8 fold
